Test results as given in patent US9353116B2, “Methods and compositions for kinase inhibition” (THE REGENTS OF THE UNIVERSITY OF CALIFORNIA, priority 2010, dated 2016).
Like-named read-outs stand apart in the source and are kept apart here.

Assays:
T338C c-Src [1] = molecular target: T1, T338C c-Src (Gallus gallus (Chicken), UniProt P00523, T338C); assay: In vitro kinase assay, T338C c-Src (c-Src-ES1); assay type: biochemical
Description: In vitro kinase assays for c-Src variants were performed in 50 mM Tris (pH 8.0), 10 mM MgCl2 and 1 mg/mL BSA. When obtaining kinetic parameters (kcat, Km) kinase and peptide substrate (IYGEFKKK) (SEQ ID NO:51) concentrations were 2 nM and 500 μM, respectively, while ATP concentrations ranged from 2000-0.655 μM. Addition of nonradioactive ATP supplemented with ^32P ATP (3,000 Ci/mmol, NEN) was used to initiate kinase reactions. Time points were selected such that product formation never exceeded 10%. Reactions were quenched by spotting 3 μL quantities onto phosphocellulose sheets (P81, Whatman). Afterwards, the sheets were washed 3×5 minutes in 0.5% phosphoric acid and dried. Radioactivity was measured by phosphorimaging and recorded on a Typhoon fluorescence imager (Molecular Dynamics). Data were plotted as rate (min^−1) versus ATP concentration and fitted to the Michaelis-Menten equation, v=[(kcat)[S]]/(Km+[S]), using Kaleidagraph software (Synergy) to extract kinetic parameters. When obtaining IC50 values for the inhibitors, 2% (v/v) DMSO was included in kinase reactions. In these cases ATP, peptide, and enzyme concentrations were 15 nM, 100 μM and 5 nM, respectively, while inhibitor concentrations ranged from 10,000-0.610 nM. […] The data was fitted to a sigmoidal dose-response curve using Prism 4.0c (GraphPad Software) to obtain IC50 values.

Toxicity profiles (LD50) = details: FIG. 17-19
WT c-Src [2] = molecular target: T2, WT c-Src (Gallus gallus (Chicken), UniProt P00523); assay: In vitro kinase assay, WT c-Src; assay type: biochemical; details: inhibitor preincubated with Src ten minutes prior to addition of ATP; read-out: WT c-Src IC50
Description: (§1) In vitro kinase assays for c-Src variants were performed in 50 mM Tris (pH 8.0), 10 mM MgCl2 and 1 mg/mL BSA. When obtaining kinetic parameters (kcat, Km) kinase and peptide substrate (IYGEFKKK) (SEQ ID NO:51) concentrations were 2 nM and 500 μM, respectively, while ATP concentrations ranged from 2000-0.655 μM. Addition of nonradioactive ATP supplemented with ^32P ATP (3,000 Ci/mmol, NEN) was used to initiate kinase reactions. Time points were selected such that product formation never exceeded 10%. Reactions were quenched by spotting 3 μL quantities onto phosphocellulose sheets (P81, Whatman). Afterwards, the sheets were washed 3×5 minutes in 0.5% phosphoric acid and dried. Radioactivity was measured by phosphorimaging and recorded on a Typhoon fluorescence imager (Molecular Dynamics). Data were plotted as rate (min^−1) versus ATP concentration and fitted to the Michaelis-Menten equation, v=[(kcat)[S]]/(Km+[S]), using Kaleidagraph software (Synergy) to extract kinetic parameters. When obtaining IC50 values for the inhibitors, 2% (v/v) DMSO was included in kinase reactions. In these cases ATP, peptide, and enzyme concentrations were 15 nM, 100 μM and 5 nM, respectively, while inhibitor concentrations ranged from 10,000-0.610 nM. In all cases, a ten-minute preincubation step between the kinase and the inhibitor preceded addition of ATP and a fifteen-minute reaction. The data was fitted to a sigmoidal dose-response curve using Prism 4.0c (GraphPad Software) to obtain IC50 values.

I338T v-Src = I338T v-Src (Rous sarcoma virus (strain H-19), UniProt P25020, I338T); assay type: cell-based
Description: (§2) Curr Biol 8(5):257-266. Cells were grown to 60-90% confluence in DMEM supplemented with fetal bovine serum (10%), penicillin ‘G’ (100 units/ml) and streptomycin sulfate (100 μg/ml) (PenStrep, UCSF Cell Culture Facility) prior to treatment with kinase inhibitors dissolved in DMSO (final DMSO concentration, 0.5%). Following 1 hour of incubation with inhibitors at 37° C., cells were harvested in lysis buffer (50 mM Tris (pH 7.4), 300 mM NaCl, 5 mM EDTA, 1% triton, 0.02% NaN3, 1× complete mini protease inhibitor (Roche), 1 mM PMSF, 1×PHOS-stop (Roche), 0.02 μM microcystin, 2 mM sodium orthovanadate), normalized for concentration and analyzed by Western blot for global phosphotyrosine levels (4G10, Millipore, 1:1000). Levels of β-actin (β-actin Antibody, Cell Signaling, 1:1000) and v-Src (Src 32G6 rabbit mAb, Cell Signaling, 1:1000) were ascertained by Western blot.
(§3) I338C (v-Src-ES1, SEQ ID NO:48), I338T (SEQ ID NO:49), I338G (v-Src-AS1, SEQ ID NO:50) and WT v-Src-transformed NIH-3T3 cell lines were generated. Unlike c-Src, v-Src is constitutively active and harbors an isoleucine gatekeeper. The I338T v-Src variant was generated for consistency with the in vitro c-Src studies. For each cell line, global levels of phosphotyrosine were analyzed (FIG. 7). […]

c-Src-ES2 (T338C/V323A) = c-Src-ES2 (T338C/V323A) (Gallus gallus (Chicken), UniProt P00523, T338C/V323A); assay: In vitro kinase assay, c-Src-ES2; assay type: biochemical
Description: as §1

v-Src-ES1 (I338C) = v-Src-ES1 (I338C) (Rous sarcoma virus (strain H-19), UniProt P25020, I338C); assay: Inhibition assay with v-Src-ES1 transformed NIH-3T3 cells; assay type: cell-based
Description: as §2, §3

T338C c-Src [3] = molecular target: T1, T338C c-Src; assay: Gel filtration and kinetic assay, T338C c-Src; assay type: biochemical; details: 23 μM inhibitor, 25 minutes, then PD10 desalting
Description: (§4) Inhibitors (final concentration 23 μM) were incubated with c-Src variants (final concentration 11.5 μM) in kinase reaction buffer (50 mM Tris pH 8, 100 mM NaCl, 1 mM DTT, 5% glycerol, 5% DMSO) for 25 minutes at room temperature. The solutions (2.6 mL total) were then passed over PD10 desalting columns (GE Healthcare) using the kinase reaction buffer for elution. Src concentrations were calculated using the extinction coefficient for c-Src (51.140 mM^−1cm^−1) {Seeliger, 2005 #100}. Kinase assays were performed as described in the experimental section at a final enzyme concentration of 10 nM.

T338C c-Src [4] = molecular target: T1, T338C c-Src; assay: Full protein mass spectrometry of covalent labeling; assay type: binding; details: two equivalents of inhibitor
Description: Protein labeling conditions: Kinase labeling reactions were performed by incubating 30 μL quantities of c-Src variants (in 50 mM Tris pH 8, 100 mM NaCl, 1 mM DTT, 5% glycerol) with two equivalents of inhibitor in DMSO (final DMSO concentration=2.4%). The covalent labeling reaction was quenched by removing 4 μL and adding it to 31 μL of 0.1% formic acid. The sample was then analyzed by ES1-oa-TOF mass spectrometry.

c-Src-ES3 (T338C/V323S) = c-Src-ES3 (T338C/V323S) (Gallus gallus (Chicken), UniProt P00523, T338C/V323S); assay: In vitro kinase assay, c-Src-ES3; assay type: biochemical; details: ES3 = T338C/V323S; read-out: c-Src variant IC50 (nM) ES3
Description: as §1

307 kinases = assay: Kinome-wide profiling (SelectScreen Kinase Profiling Service); assay type: biochemical; details: compounds at 1 μM, ATP at Km,app
Description: The percent inhibition results in FIG. were generated with biochemical enzymatic kinase assays using the SelectScreen® Kinase Profiling Service (Life Technologies Corporation, Madison, Wis.). Compounds were assayed at 1 μM at an ATP concentration equal to the ATP Km,app for the assay following the detailed procedures described in the SelectScreen® Customer Protocol and Assay Conditions documents located at www.invitrogen.com/kinaseprofiling.
Compounds that were profiled include, but are not limited to, 3, 4, 9, 13, and 20. […] The exocyclic amine mimics N6 of ATP and plays an important role in a hydrogen bonding interaction with the hinge region of kinases.

WT c-Src [5] = molecular target: T2, WT c-Src; assay: Gel filtration and kinetic assay, WT c-Src; assay type: biochemical; details: 23 μM inhibitor, 25 minutes, then PD10 desalting
Description: as §4

[6] = inhibitor preincubated with Src ten minutes prior to addition of ATP, read-out: T338C c-Src IC50

| Structure (SMILES) | IC50 (T338C c-Src [1]; [6]) [nM] | LD50 (Toxicity profiles (LD50)) [µM] | IC50 (WT c-Src [2]) [nM] | inhibition of I338T v-Src in cells (global phosphotyrosine levels) (I338T v-Src) | IC50 (c-Src-ES2 (T338C/V323A); ES2 = T338C/V323A, read-out: c-Src variant IC50 (nM) ES2) [nM] | change of inhibitor potency upon second-site Val323 mutations (c-Src-ES2 (T338C/V323A); c-Src-ES2 and c-Src-ES3 relative to c-Src-ES1) | inhibition of v-Src-ES1 in cells (global phosphotyrosine levels) (v-Src-ES1 (I338C)) | time dependence of inhibition of T338C c-Src (T338C c-Src [1]) | IC50 (T338C c-Src [1]; ES1 = T338C, read-out: c-Src variant IC50 (nM) ES1) [nM] | IC50 (T338C c-Src [1]; T338C c-Src IC50 (nM), preincubation time 2 min) [nM] | IC50 (T338C c-Src [1]; T338C c-Src IC50 (nM), preincubation time 20 min) [nM] | IC50 (T338C c-Src [1]; T338C c-Src IC50 (nM), preincubation time 40 min) [nM] | inhibitory activity after gel filtration, T338C c-Src (T338C c-Src [3]) | covalent labeling / adduct formation by full protein mass spectrometry (T338C c-Src [4]) | IC50 (c-Src-ES3 (T338C/V323S)) [nM] | off-target profile in kinome-wide screen (307 kinases) | inhibitory activity after gel filtration, WT c-Src (WT c-Src [5]) |
| --- | --- | --- | --- | --- | --- | --- | --- | --- | --- | --- | --- | --- | --- | --- | --- | --- | --- |
| C=CS(=O)(=O)Nc1cccc(Nc2ncnc3cc(OC)c(OC)cc23)c1 [Compound 19, N-(3-(6,7-dimethoxyquinazolin-4-ylamino)phenyl)ethenesulfonamide] | 1000 | 3.92 | > 5000 | – | – | – | – | – | – | – | – | – | – | – | – | – | – |
| C=CS(=O)(=O)Nc1cccc(Cc2nn(C(C)C)c3ncnc(N)c23)c1 [Compound 9, N-(3-((4-amino-1-isopropyl-1H-pyrazolo[3,4-d]pyrimidin-3-yl)methyl)phenyl)ethenesulfonamide] | 150 | – | > 5000 | neither 9 nor 13 inhibited I338T v-Src | 207 | not modulated appreciably | inhibited v-Src-ES1 in a dose-dependent manner | time-dependent manner | 150 | 981 | 309 | 138 | retained | specific labeling of T338C relative to WT c-Src | 424 | relatively few off-target effects | lost |
